Laboratory results: ChEMBL document CHEMBL1123518, “Synthesis and biological evaluation of irreversible inhibitors of aldose reductase” (J Med Chem, 1986)

Experiments:
[1] = target: Aldo-keto reductase family 1 member B1 (Rattus norvegicus, UniProt P07943); experiment: Compound was tested for 50% inhibitory concentration that was required for irreversible inhibition of aldose reductase
[2] = target: Aldo-keto reductase family 1 member B1 (Rattus norvegicus) (UniProt P07943); experiment: Compound was tested for % inhibition against RLAR (aldose reductase) at a concentration of 10 micro M.
[3] = target: Aldo-keto reductase family 1 member B1 (Rattus norvegicus) (UniProt P07943); experiment: Compound was tested for % inhibition against RLAR (aldose reductase)at a concentration of 10 uM, pre-incubated with 100 uM sorbinil

Compound	IC50 [1] [µM]	inhibition [2] [%]	inhibition [3] [%]
COC(=O)CN1C(=O)c2cccc3cc(N=[N+]=[N-])cc(c23)C1=O	38		
S=C=Nc1ccccc1		34	5

The remaining molecules from weak to strong by IC50 [1], led by results:

IC50 [1] [µM]	Compound	inhibition [2] [%]	inhibition [3] [%]
14	COC(=O)CN1C(=O)c2cccc3cc(N=C=S)cc(c23)C1=O		
3.6	[N-]=[N+]=Nc1cc2c3c(cccc3c1)C(=O)N(CC(=O)O)C2=O		
0.3	O=C(O)CN1C(=O)c2cccc3cc(N=C=S)cc(c23)C1=O	57	5
